Tested on: CFTR in R117H/F508del HBEs
Experiment: Ussing measurements, R117H/F508del HBEs
Type: cell-based, human
Conditions: genotype R117H/F508del
Procedure: As discussed above, Ussing measurements was used to measure CFTR activity. In this method, primary lung epithelial cells (hBEs) with a Cystic Fibrosis-causing class III mutation were differentiated for a minimum of 4 weeks in an air-liquid interface on SnapWell™ filter plates prior to the Ussing measurements. Cells were apically mucus-washed for 30 minutes prior to treatment with compounds. The basolateral media was removed and replaced with media containing the compound of interest diluted to its final concentration from DMSO stocks. Treated cells were incubated at 37° C. and 5% CO2 for 24 hours. At the end of the treatment period, the cells on filters were transferred to the Ussing chamber and equilibrated for 30 minutes. The short-circuit current was measured in voltage clamp-mode (Vhold=0 mV), and the entire assay was conducted at a temperature of 36° C.-36.5° C. Once the voltages stabilized, the chambers were clamped, and data was recorded by pulse readings every 5 seconds. Following baseline current stabilization, the following additions were applied and the changes in current and resistance of the cells was monitored: • 1. Benzamil to the apical chamber to inhibit ENaC sodium channel. • 2. Forskolin to both chambers to activate ΔF508-CFTR by phosphorylation. • 3. Ivacaftor or Genistein to the apical chamber to potentiate ΔF508-CFTR channel opening. • 4. CFTRinh-172 to the apical chamber to inhibit ΔF508-CFTR Cl-conductance.
The forskolin-sensitive current and inhibitable current (that potentiated current that is blocked by CFTRinh-172) were measured as the specific activity of the ΔF508-CFTR channel, and increase in response to compound in this activity over that observed in vehicle-treated samples were identified as the correction of ΔF508-CFTR function imparted by the compound tested.
The results are shown below in Tables 5 and 6. Compound A is 10 uM and VX-809 is 3 uM and ivacaftor is 1 uM.

## C[C@@H](O)c1nnc([C@H]2C[C@H](NC(=O)c3cc(-c4ccccc4)no3)C2)o1 [Example 6, N-(trans-3-(5-((R)-1-hydroxyethyl)-1,3,4-oxadiazol-2-yl)cyclobutyl)-3-phenylisoxazole-5-carboxamide]
Compound A 10uM + ivacaftor 1uM, relative activity of 100% = ivacaftor
  Combination with ivacaftor, activity: ++++ (++++ indicates activity at 10uM of >150% of the indicated relative activity treatment)
Compound A 10uM, relative activity of 100% = ivacaftor (1uM)
  Stand Alone activity: +++ (+++ indicates activity at 10uM of 100% to <150% of the indicated relative activity treatment)
